Measured values reported in patent US20170000133A1, “BENZOXABOROLE FUNGICIDES” (SYNGENTA PARTICIPATIONS AG, priority 2013, published 2017).

test system: Gaeumannomyces graminis; assay: Gaeumannomyces graminis / liquid culture (take-all of cereals); assay type: cell-based; settings: PDB potato dextrose broth, 24° C., 4-5 days after application, read-out: disease control (inhibition of growth determined photometrically)
Summary of the method: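 Cryo-stored mycelial fragments in potato dextrose broth exposed to compound in DMSO at 200 ppm. Incubated at 24 °C; growth inhibition read photometrically 4–5 days after application.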

SMILES	inhibition at 200 ppm [%]
COC(COC(=O)c1cc2c(cc1Cl)COB2O)OC [Compound 449]	≥ 80

test system: Thanatephorus cucumeris (Rhizoctonia solani); assay: Thanatephorus cucumeris (Rhizoctonia solani) / liquid culture (foot rot, damping-off); assay type: cell-based; settings: PDB potato dextrose broth, 24° C., 3-4 days after application, read-out: disease control (inhibition of growth determined photometrically)
Summary of the method: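 Mycelial fragments from fresh liquid culture were suspended in potato dextrose broth and added to compound in DMSO at 200 ppm. After 3-4 days at 24 °C, growth inhibition was measured photometrically.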

SMILES	inhibition at 200 ppm [%]
CCCCCCCCCCOC(=O)c1ccc2c(c1)B(O)OC2 [Compound 331]	≥ 80
O=C(OCC1CCSCC1)c1cc2c(cc1F)COB2O [Compound 380]	≥ 80
O=C(OCc1ccsc1)c1cc2c(cc1F)COB2O [Compound 441]	≥ 80

test system: Sclerotinia sclerotiorum; assay: Sclerotinia sclerotiorum / liquid culture (cottony rot); assay type: cell-based; settings: PDB potato dextrose broth, 24° C., 3-4 days after application, read-out: disease control (inhibition of growth determined visually)
Experimental: 18. Sclerotinia sclerotiorum/Liquid Culture (Cottony Rot): Mycelia fragments of a newly grown liquid culture of the fungus were directly mixed into nutrient broth (PDB potato dextrose broth). After placing a (DMSO) solution of the test compounds into a microtiter plate (96-well format) the nutrient broth containing the fungal material was added. The test plates were incubated at 24° C. and the inhibition of growth was determined visually 3-4 days after application.

SMILES	inhibition at 200 ppm [%]
Cc1csc(NC(=O)c2cc3c(cc2Cl)COB3O)n1 [Compound 147]	≥ 80
COC(COC(=O)c1cc2c(cc1Cl)COB2O)OC [Compound 449]	≥ 80

test system: Fusarium culmorum; assay: microbe, parasite or virus in culture; assay type: cell-based; settings: read-out: disease control (inhibition of growth determined visually)

SMILES	inhibition at 200 ppm [%]
O=C(OCc1ccsc1)c1cc2c(cc1F)COB2O [Compound 441]	≥ 80
COC(COC(=O)c1cc2c(cc1Cl)COB2O)OC [Compound 449]	≥ 80

test system: not given; assay: not given; settings: not given

SMILES	melting point [°C]
COC(=O)c1sccc1NC(=O)c1cc2c(cc1Cl)COB2O [Compound 169]	267 to 269
O=C(OCc1ccsc1)c1cc2c(cc1F)COB2O [Compound 441]	128 to 130
COC(COC(=O)c1cc2c(cc1Cl)COB2O)OC [Compound 449]	122 to 124

test system: Monographella nivalis (Microdochium nivale); assay: Monographella nivalis (Microdochium nivale) / liquid culture (foot rot cereals); assay type: cell-based; settings: PDB potato dextrose broth, 24° C., 4-5 days after application, read-out: disease control (inhibition of growth determined photometrically)

SMILES	inhibition at 200 ppm [%]
Cc1csc(NC(=O)c2cc3c(cc2Cl)COB3O)n1 [Compound 147]	≥ 80
COC(=O)c1sccc1NC(=O)c1cc2c(cc1Cl)COB2O [Compound 169]	≥ 80
O=C(OCC1CCSCC1)c1cc2c(cc1F)COB2O [Compound 380]	≥ 80
O=C(OCc1ccsc1)c1cc2c(cc1F)COB2O [Compound 441]	≥ 80
COC(COC(=O)c1cc2c(cc1Cl)COB2O)OC [Compound 449]	≥ 80

test system: Mycosphaerella arachidis (Cercospora arachidicola); assay: Mycosphaerella arachidis (Cercospora arachidicola) / liquid culture (early leaf spot); assay type: cell-based; settings: PDB potato dextrose broth, 24° C., 4-5 days after application, read-out: disease control (inhibition of growth determined photometrically)
Summary of the method: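 Conidia from cryogenic storage mixed into potato dextrose broth and added to compound at 200 ppm in DMSO. Incubation at 24° C.; growth inhibition read photometrically 4-5 days after application.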

SMILES	inhibition at 200 ppm [%]
Cc1csc(NC(=O)c2cc3c(cc2Cl)COB3O)n1 [Compound 147]	≥ 80
CCCCCCCCCCOC(=O)c1ccc2c(c1)B(O)OC2 [Compound 331]	≥ 80
O=C(OCC1CCSCC1)c1cc2c(cc1F)COB2O [Compound 380]	≥ 80
O=C(OCc1ccsc1)c1cc2c(cc1F)COB2O [Compound 441]	≥ 80
COC(COC(=O)c1cc2c(cc1Cl)COB2O)OC [Compound 449]	≥ 80

test system: Glomerella lagenarium (Colletotrichum lagenarium); assay: Glomerella lagenarium (Colletotrichum lagenarium) / liquid culture (anthracnose); assay type: cell-based; settings: Colletotrichum orbiculare, PDB potato dextrose broth, 24° C., 3-4 days after application, read-out: disease control (inhibition of growth measured photometrically)
Summary of the method: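 Conidia of G. lagenarium from cryogenic storage were suspended in potato dextrose broth and added to test compound in DMSO at 200 ppm. Plates were incubated at 24° C, and growth inhibition was read photometrically 3-4 days after application.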

SMILES	inhibition at 200 ppm [%]
Cc1csc(NC(=O)c2cc3c(cc2Cl)COB3O)n1 [Compound 147]	≥ 80
COC(=O)c1sccc1NC(=O)c1cc2c(cc1Cl)COB2O [Compound 169]	≥ 80
O=C(OCC1CCSCC1)c1cc2c(cc1F)COB2O [Compound 380]	≥ 80
O=C(OCc1ccsc1)c1cc2c(cc1F)COB2O [Compound 441]	≥ 80
COC(COC(=O)c1cc2c(cc1Cl)COB2O)OC [Compound 449]	≥ 80

test system: Plasmopara viticola; assay: whole plant or invertebrate; assay type: in vivo; settings: foliar, read-out: disease control

SMILES	pest or weed control at 200 ppm [%]
COC(=O)c1sccc1NC(=O)c1cc2c(cc1Cl)COB2O [Compound 169]	≥ 80
O=C(OCC1CCSCC1)c1cc2c(cc1F)COB2O [Compound 380]	≥ 80
O=C(OCc1ccsc1)c1cc2c(cc1F)COB2O [Compound 441]	≥ 80

test system: Puccinia recondita f. sp. tritici; assay: Puccinia recondita f. sp. tritici / wheat / leaf disc preventative (brown rust); assay type: in vivo; settings: foliar, wheat leaf segments cv Kanzler, inoculated 1 day after application, assessed 7-9 days after application, read-out: disease control
Text: 3. Puccinia recondita f. sp. tritici/Wheat/Leaf Disc Preventative (Brown Rust): Wheat leaf segments cultivated variety (cv) Kanzler were placed on agar in 24-well plates and sprayed with formulated test compound diluted in water at an application rate of 200 ppm. The leaf disks were inoculated with a spore suspension of the fungus 1 day after application.

SMILES	pest or weed control at 200 ppm [%]
COC(=O)c1sccc1NC(=O)c1cc2c(cc1Cl)COB2O [Compound 169]	≥ 80
CCCCCCCCCCOC(=O)c1ccc2c(c1)B(O)OC2 [Compound 331]	≥ 80
O=C(OCC1CCSCC1)c1cc2c(cc1F)COB2O [Compound 380]	≥ 80
O=C(OCc1ccsc1)c1cc2c(cc1F)COB2O [Compound 441]	≥ 80

test system: Pythium ultimum; assay: Pythium ultimum / liquid culture (seedling damping off); assay type: cell-based; settings: Globisporangium ultimum; 200 ppm; potato dextrose broth, 24° C., 2-3 days after application; read-out: disease control (inhibition of growth determined photometrically)

SMILES	inhibition at 200 ppm [%]
Cc1csc(NC(=O)c2cc3c(cc2Cl)COB3O)n1 [Compound 147]	≥ 80
CCCCCCCCCCOC(=O)c1ccc2c(c1)B(O)OC2 [Compound 331]	≥ 80
O=C(OCC1CCSCC1)c1cc2c(cc1F)COB2O [Compound 380]	≥ 80
O=C(OCc1ccsc1)c1cc2c(cc1F)COB2O [Compound 441]	≥ 80
COC(COC(=O)c1cc2c(cc1Cl)COB2O)OC [Compound 449]	≥ 80

test system: Mycosphaerella graminicola (Septoria tritici); assay: Mycosphaerella graminicola (Septoria tritici) / liquid culture (Septoria blotch); assay type: cell-based; settings: Zymoseptoria tritici, PDB potato dextrose broth, 24° C., 4-5 days after application, read-out: disease control (inhibition of growth determined photometrically)
Summary of the method: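 Conidia from cryostorage were suspended in potato dextrose broth and added to test compound in DMSO at 200 ppm in microtiter wells. Plates were incubated at 24° C and growth inhibition measured photometrically 4-5 days after application.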

SMILES	inhibition at 200 ppm [%]
COC(=O)c1sccc1NC(=O)c1cc2c(cc1Cl)COB2O [Compound 169]	≥ 80
CCCCCCCCCCOC(=O)c1ccc2c(c1)B(O)OC2 [Compound 331]	≥ 80
O=C(OCc1ccsc1)c1cc2c(cc1F)COB2O [Compound 441]	≥ 80
COC(COC(=O)c1cc2c(cc1Cl)COB2O)OC [Compound 449]	≥ 80
